Experimental data from ChEMBL document CHEMBL1154899, “Synthesis and biological evaluation of caffeic acid 3,4-dihydroxyphenethyl ester” (J Nat Prod, 2010).

Assays:
Format in all cases: functional
NCI-H23 = assay: Antiproliferative activity against human NCI-H23 cells assessed as cell growth at 50 uM by SRB assay; settings: read-out: Activity
NCI-H322M = assay: Antiproliferative activity against human NCI-H322M cells assessed as cell growth at 50 uM by SRB assay; settings: read-out: Activity
KM12 [1] = assay: Antiproliferative activity against human KM12 cells assessed as cell growth at 50 uM by SRB assay; settings: read-out: Activity
UACC-257 [2] = assay: Antiproliferative activity against human UACC257 cells assessed as cell growth at 50 uM by SRB assay; settings: read-out: Activity
LOX IMVI [3] = assay: Antiproliferative activity against human LOXIMVI cells assessed as cell growth at 5 uM by SRB assay; settings: read-out: Activity
IGROV-1 = assay: Antiproliferative activity against human IGROV1 cells assessed as cell growth at 5 uM by SRB assay; settings: read-out: Activity
SK-OV-3 = assay: Antiproliferative activity against human SKOV3 cells assessed as cell growth at 5 uM by SRB assay; settings: read-out: Activity
ACHN [4] = assay: Antiproliferative activity against human ACHN cells assessed as cell growth at 50 uM by SRB assay; settings: read-out: Activity
CAKI-1 [5] = assay: Antiproliferative activity against human Caki1 cells assessed as cell growth at 50 uM by SRB assay; settings: read-out: Activity
SN12C = assay: Antiproliferative activity against human SN12C cells assessed as cell growth at 50 uM by SRB assay; settings: read-out: Activity
[6] = Antiproliferative activity against human Hs 578T cells assessed as cell growth at 50 uM by SRB assay; settings: read-out: Activity
MCF7 = assay: Antiproliferative activity against human MCF7 cells assessed as cell growth at 500 uM by SRB assay; settings: read-out: Activity
MDA-MB-435 = assay: Antiproliferative activity against human MDA-MB-435 cells assessed as cell growth at 500 uM by SRB assay; settings: read-out: Activity
T47D [7] = assay: Antiproliferative activity against human T47D cells assessed as cell growth at 500 uM by SRB assay; settings: read-out: Activity
HL-60(TB) = assay: Antiproliferative activity against human HL-60(TB) cells assessed as cell growth at 5 mM by SRB assay; settings: read-out: Activity
[8] = Antiproliferative activity against human Hs 578T cells assessed as cell growth at 5 uM by SRB assay; settings: read-out: Activity
BT-549 [9] = assay: Antiproliferative activity against human BT549 cells assessed as cell growth at 5 uM by SRB assay; settings: read-out: Activity
T47D [10] = assay: Antiproliferative activity against human T47D cells assessed as cell growth at 5 uM by SRB assay; settings: read-out: Activity
A549 [11] = assay: Antiproliferative activity against human A549 cells assessed as cell growth at 50 uM by SRB assay; settings: read-out: Activity
SK-MEL-5 = assay: Antiproliferative activity against human SK-MEL-5 cells assessed as cell growth at 5 mM by SRB assay; settings: read-out: Activity
UACC-257 [12] = assay: Antiproliferative activity against human UACC257 cells assessed as cell growth at 5 mM by SRB assay; settings: read-out: Activity
SNB-75 [13] = assay: Antiproliferative activity against human SNB75 cells assessed as cell growth at 5 mM by SRB assay; settings: read-out: Activity
T47D [14] = assay: Antiproliferative activity against human T47D cells assessed as cell growth at 50 uM by SRB assay; settings: read-out: Activity
EKVX = assay: Antiproliferative activity against human EKVX cells assessed as cell growth at 500 uM by SRB assay; settings: read-out: Activity
KM12 [15] = assay: Antiproliferative activity against human KM12 cells assessed as cell growth at 500 uM by SRB assay; settings: read-out: Activity
SNB-75 [16] = assay: Antiproliferative activity against human SNB75 cells assessed as cell growth at 500 uM by SRB assay; settings: read-out: Activity
OVCAR-3 = assay: Antiproliferative activity against human OVCAR-3 cells assessed as cell growth at 500 uM by SRB assay; settings: read-out: Activity
MOLT-4 = assay: Antiproliferative activity against human MOLT4 cells by SRB assay
HT-29 = assay: Antiproliferative activity against human HT-29 cells by SRB assay
SNB-75 [17] = assay: Antiproliferative activity against human SNB75 cells by SRB assay
LOX IMVI [18] = assay: Antiproliferative activity against human LOXIMVI cells by SRB assay
OVCAR-4 = assay: Antiproliferative activity against human OVCAR4 cells by SRB assay
CAKI-1 [19] = assay: Antiproliferative activity against human Caki1 cells by SRB assay
BT-549 [20] = assay: Antiproliferative activity against human BT549 cells by SRB assay
ACHN [21] = assay: Antiproliferative activity against human ACHN cells assessed as cell growth at 0.5 uM by SRB assay; settings: read-out: Activity
RXF 393 = assay: Antiproliferative activity against human RXF393 cells assessed as cell growth at 0.5 uM by SRB assay; settings: read-out: Activity
NCI-H522 = assay: Antiproliferative activity against human NCI-H522 cells assessed as cell growth at 0.5 uM by SRB assay; settings: read-out: Activity
KM12 [22] = assay: Antiproliferative activity against human KM12 cells assessed as cell growth at 0.5 uM by SRB assay; settings: read-out: Activity
SF-268 = assay: Antiproliferative activity against human SF268 cells assessed as cell growth at 0.5 uM by SRB assay; settings: read-out: Activity
SNB-75 [23] = assay: Antiproliferative activity against human SNB75 cells assessed as cell growth at 0.5 uM by SRB assay; settings: read-out: Activity
BT-549 [24] = assay: Antiproliferative activity against human BT549 cells assessed as cell growth at 0.5 uM by SRB assay; settings: read-out: Activity
CCRF-CEM = assay: Antiproliferative activity against human CCRF-CEM cells assessed as cell growth at 5 uM by SRB assay; settings: read-out: Activity
A549 [25] = assay: Antiproliferative activity against human A549 cells assessed as cell growth at 5 uM by SRB assay; settings: read-out: Activity
HOP-62 = assay: Antiproliferative activity against human HOP62 cells assessed as cell growth at 5 uM by SRB assay; settings: read-out: Activity
[26] = read-out: LC50 (the source's name)
[27] = read-out: pLC50 (the source's name) (converted)

Work on `O=C(/C=C/c1ccc(O)c(O)c1)OCCc1ccc(O)c(O)c1` yielded a growth at 50 µM (NCI-H23) of 89%, a growth at 50 µM (NCI-H322M) of 97% and a growth at 50 µM (KM12 [1]) of 81%. For the same compound, the growth at 50 µM (UACC-257 [2]) was 92%, the growth at 5 µM (LOX IMVI [3]) was 101% and the growth at 5 µM (IGROV-1) was 102%. It also gave a growth at 5 µM (SK-OV-3) of 96%, a growth at 50 µM (ACHN [4]) of 89% and a growth at 50 µM (CAKI-1 [5]) of 88%. The growth at 50 µM (SN12C) was 81%, the growth at 50 µM [6] was 80% and the growth at 500 µM (MCF7) was 45%. The growth at 500 µM (MDA-MB-435) was 48%, the growth at 500 µM (T47D [7]) was 71% and the growth at 5000 µM (HL-60(TB)) was -30%. It also gave a growth at 5 µM [8] of 80%, a growth at 5 µM (BT-549 [9]) of 100% and a growth at 5 µM (T47D [10]) of 102%. For the same compound, the growth at 50 µM (A549 [11]) was 101%, the growth at 5000 µM (SK-MEL-5) was -1% and the growth at 5000 µM (UACC-257 [12]) was 18%. For the same compound, the growth at 5000 µM (SNB-75 [13]) was 30%, the growth at 50 µM (T47D [14]) was 93% and the growth at 500 µM (EKVX) was 78%. For the same compound, the growth at 500 µM (KM12 [15]) was 59%, the growth at 500 µM (SNB-75 [16]) was 58% and the growth at 500 µM (OVCAR-3) was 50%. The GI50 (MOLT-4; read-out: GI50) was 3.06 µM, the CC50 (MOLT-4; [26]) was greater than 50 µM and the TGI (MOLT-4; read-out: TGI) was greater than 50 µM. For the same compound, the GI50 (MOLT-4; read-out: pGI50 (converted)) was 3.09 µM, the CC50 (MOLT-4; [27]) was greater than 50.1 µM and the TGI (MOLT-4; read-out: pTGI) was greater than 50.1 µM. The GI50 (HT-29; read-out: GI50) was 28.5 µM, the CC50 (HT-29; [26]) was greater than 50 µM and the TGI (HT-29; read-out: TGI) was greater than 50 µM. It also gave a GI50 (HT-29; read-out: pGI50 (converted)) of 28.2 µM, a CC50 (HT-29; [27]) greater than 50.1 µM and a TGI (HT-29; read-out: pTGI) greater than 50.1 µM. It also gave a GI50 (SNB-75 [17]; read-out: GI50) of 9.5 µM, a CC50 (SNB-75 [17]; [26]) greater than 50 µM and a TGI (SNB-75 [17]; read-out: TGI) greater than 50 µM. The GI50 (SNB-75 [17]; read-out: pGI50 (converted)) was 9.55 µM, the CC50 (SNB-75 [17]; [27]) was greater than 50.1 µM and the TGI (SNB-75 [17]; read-out: pTGI) was greater than 50.1 µM. The GI50 (LOX IMVI [18]; read-out: GI50) was 6.38 µM, the CC50 (LOX IMVI [18]; [26]) was greater than 50 µM and the TGI (LOX IMVI [18]; read-out: TGI) was 35.1 µM. For the same compound, the GI50 (LOX IMVI [18]; read-out: pGI50 (converted)) was 6.31 µM, the CC50 (LOX IMVI [18]; [27]) was greater than 50.1 µM and the TGI (LOX IMVI [18]; read-out: pTGI (converted)) was 35.5 µM. The GI50 (OVCAR-4) was 7.37 µM, the CC50 (OVCAR-4; [26]) was greater than 50 µM and the TGI (OVCAR-4; read-out: TGI) was greater than 50 µM. The CC50 (OVCAR-4; [27]) was greater than 50.1 µM, the TGI (OVCAR-4; read-out: pTGI) was greater than 50.1 µM and the GI50 (CAKI-1 [19]; read-out: GI50) was 10.6 µM. It also gave a CC50 (CAKI-1 [19]; [26]) greater than 50 µM, a TGI (CAKI-1 [19]; read-out: TGI) greater than 50 µM and a GI50 (CAKI-1 [19]; read-out: pGI50 (converted)) of 10.5 µM. For the same compound, the CC50 (CAKI-1 [19]; [27]) was greater than 50.1 µM, the TGI (CAKI-1 [19]; read-out: pTGI) was greater than 50.1 µM and the GI50 (BT-549 [20]; read-out: GI50) was 8.67 µM. For the same compound, the CC50 (BT-549 [20]; [26]) was greater than 50 µM, the TGI (BT-549 [20]; read-out: TGI) was greater than 50 µM and the GI50 (BT-549 [20]; read-out: pGI50 (converted)) was 8.32 µM. For the same compound, the CC50 (BT-549 [20]; [27]) was greater than 50.1 µM, the TGI (BT-549 [20]; read-out: pTGI) was greater than 50.1 µM and the growth at 0.5 µM (ACHN [21]) was 98%. The growth at 0.5 µM (RXF 393) was 88%, the growth at 0.5 µM (NCI-H522) was 74% and the growth at 0.5 µM (KM12 [22]) was 97%. The growth at 0.5 µM (SF-268) was 94%, the growth at 0.5 µM (SNB-75 [23]) was 81% and the growth at 0.5 µM (BT-549 [24]) was 94%. It also gave a growth at 5 µM (CCRF-CEM) of 99%, a growth at 5 µM (A549 [25]) of 97% and a growth at 5 µM (HOP-62) of 89%.
